“Also recorded” adds a separate entry of the source.
Tested on: diseased human lung fibroblasts (DHLF)
Assay: Fibrosis-related gene expression (Bio-rad Prime PCR Fibrosis gene panel) in human lung fibroblasts treated for two days with a laforin inhibitor
Format: cell-based
Details: NHLF or DHLF derived from idiopathic pulmonary fibrosis patients; treated two days vs vehicle control; mRNA; n=3 samples per condition; FIG. 14
Protocol: Normal human lung fibroblasts (NHLF) or diseased human lung fibroblasts (DHLF) derived from idiopathic pulmonary fibrosis patients were treated for two days with a laforin inhibitor (or vehicle control) before harvesting mRNA and assessing gene expression. Samples were run on Bio-rad Prime PCR Fibrosis gene panel plates with n=3 samples per condition. *p<0.05, ***p<0.001 two-tailed student's t-test.
Normal human lung fibroblasts (NHLF) or diseased human lung fibroblasts (DHLF) derived from idiopathic pulmonary fibrosis patients were treated for two days with a laforin inhibitor (or vehicle control). […] Following treatment, mRNA was harvested from the cells and gene expression was assessed.

SMILES: O=C(Nc1ccc(OCc2ccccc2)c(Cl)c1)C(=O)Nc1ccccc1NC(=O)C(c1ccccc1)S(=O)(=O)O (stereo not shown) [L319-21-M50]
- fibrosis-related gene expression: disease-specific expression patterns being rescued by laforin inhibition; also recorded: decreases fibrosis-related gene expression in diseased human lung fibroblasts

— patent publication US20240325326A1, “METHOD OF TREATING PULMONARY FIBROSIS BY TARGETING GLYCOGEN UTILIZATION” (University of Kentucky Research Foundation, priority 2023, published 2024)
